From patent publication US8933063B2, “Preparation of a crystalline antibiotic substance” (Leo Pharma A/S, priority 2005, dated 2015)

Test: Stability assay: six month storage stability of polymorphic forms of fusidic acid (HPLC)
Assay type: physicochemical
Settings: for HPLC-assay (% of origin) / Impurities total (%): after 6 month storage at 40° C., solid crystal form

SMILES	HPLC-assay (% of origin)	Impurities total (%)	HPLC-assay (% of origin) (hemihydrate)	Impurities total (%) (hemihydrate)	Relative stability among known forms of fusidic acid (comparative six month standard stability study)
CC(=O)O[C@H]1C[C@@]2(C)[C@@H](C[C@@H](O)[C@H]3[C@@]4(C)CC[C@@H](O)[C@@H](C)[C@@H]4CC[C@@]32C)/C1=C(\CCC=C(C)C)C(=O)O [Fusidic acid form I from ES 2208110, Fusidic acid]	98.2 % of origin	1.0	–	–	–
CC(=O)O[C@H]1C[C@@]2(C)[C@@H](C[C@@H](O)[C@H]3[C@@]4(C)CC[C@@H](O)[C@@H](C)[C@@H]4CC[C@@]32C)/C1=C(\CCC=C(C)C)C(=O)O [Fusidic acid form II from ES 2208110, Fusidic acid]	88.2 % of origin	5.2	–	–	–
CC(=O)O[C@H]1C[C@@]2(C)[C@@H](C[C@@H](O)[C@H]3[C@@]4(C)CC[C@@H](O)[C@@H](C)[C@@H]4CC[C@@]32C)/C1=C(\CCC=C(C)C)C(=O)O [Fusidic acid hemihydrate]	–	–	87.7 % of origin	8.7	–
CC(=O)O[C@H]1C[C@@]2(C)[C@@H](C[C@@H](O)[C@H]3[C@@]4(C)CC[C@@H](O)[C@@H](C)[C@@H]4CC[C@@]32C)/C1=C(\CCC=C(C)C)C(=O)O [Fusidic acid of the present invention, Fusidic acid]	99.2 % of origin	0.1	–	–	most stable form
